Paper PMC8895463 (Journal of Agricultural and Food Chemistry, 2022)

Biological target: T1, CYP3A4 (Homo sapiens, UniProt P08684)
T1 construct: recombinant; E. coli microsomes; with NADPH cytochrome P450 reductase (POR, P16435), coexpressed
Assay: fluorogenic Vivid BOMR substrate assay with recombinant CYP3A4/POR E. coli microsomes
Format: biochemical

T1 sequence (P08684 13-503 S18F): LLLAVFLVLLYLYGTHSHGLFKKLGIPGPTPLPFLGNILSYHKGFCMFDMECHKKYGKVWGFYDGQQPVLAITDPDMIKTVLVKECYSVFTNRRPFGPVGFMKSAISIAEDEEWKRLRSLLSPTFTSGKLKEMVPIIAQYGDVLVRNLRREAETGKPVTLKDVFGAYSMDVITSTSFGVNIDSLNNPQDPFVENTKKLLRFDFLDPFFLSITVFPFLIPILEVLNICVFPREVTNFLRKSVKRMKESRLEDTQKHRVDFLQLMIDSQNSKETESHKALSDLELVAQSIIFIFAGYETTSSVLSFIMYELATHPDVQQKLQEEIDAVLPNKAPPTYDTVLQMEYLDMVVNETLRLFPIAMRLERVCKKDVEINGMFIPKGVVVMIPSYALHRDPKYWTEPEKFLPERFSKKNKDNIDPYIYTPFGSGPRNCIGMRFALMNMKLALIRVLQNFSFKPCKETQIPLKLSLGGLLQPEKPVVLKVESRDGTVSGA
T1 sequence (P16435 2-677, further chain): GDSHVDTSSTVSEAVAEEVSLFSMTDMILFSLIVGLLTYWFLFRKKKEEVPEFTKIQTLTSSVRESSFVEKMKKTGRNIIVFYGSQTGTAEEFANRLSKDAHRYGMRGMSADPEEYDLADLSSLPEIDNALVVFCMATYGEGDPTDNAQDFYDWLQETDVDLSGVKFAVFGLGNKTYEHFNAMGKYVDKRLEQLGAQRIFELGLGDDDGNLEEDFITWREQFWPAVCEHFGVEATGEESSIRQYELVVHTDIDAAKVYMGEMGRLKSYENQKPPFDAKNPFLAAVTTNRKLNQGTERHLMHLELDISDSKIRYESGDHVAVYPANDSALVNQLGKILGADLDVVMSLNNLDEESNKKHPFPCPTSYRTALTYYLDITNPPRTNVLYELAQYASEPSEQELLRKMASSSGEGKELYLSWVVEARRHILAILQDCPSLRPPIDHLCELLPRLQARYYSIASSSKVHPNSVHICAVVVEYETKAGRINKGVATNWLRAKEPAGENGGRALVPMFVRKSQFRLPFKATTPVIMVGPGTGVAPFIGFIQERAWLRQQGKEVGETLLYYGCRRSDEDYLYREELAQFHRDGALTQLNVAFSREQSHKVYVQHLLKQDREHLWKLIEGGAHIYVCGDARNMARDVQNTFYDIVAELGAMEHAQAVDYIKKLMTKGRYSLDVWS

## COc1ccc(-c2cc(=O)c3c(O)cc(O)cc3o2)cc1-c1c(O)cc(O)c2c(=O)cc(-c3ccc(O)cc3)oc12 [bilobetin]
  IC50: 12.9 µM
